# Reference: patent US9102678B2, “Compounds and methods for inhibiting mitotic progression” (Millennium Pharmaceuticals, Inc., priority 2004, dated 2015)
# pIC50: −log10 of the molar value.
# Target: T1, recombinant murine Aurora A enzyme (Mus musculus, UniProt P97477)
# T1 construct: hexahistidine (His6) (N); made in house; host or cells: insect cells, baculovirus (Bac-to-Bac, Invitrogen)
# Assay: Aurora A DELFIA Kinase Assay
# Assay type: biochemical
# Conditions: mouse Aurora A, 250 μM ATP; threshold less than or equal to 100 nM; read-out: IC50
# T1 sequence (P97477 whole entry): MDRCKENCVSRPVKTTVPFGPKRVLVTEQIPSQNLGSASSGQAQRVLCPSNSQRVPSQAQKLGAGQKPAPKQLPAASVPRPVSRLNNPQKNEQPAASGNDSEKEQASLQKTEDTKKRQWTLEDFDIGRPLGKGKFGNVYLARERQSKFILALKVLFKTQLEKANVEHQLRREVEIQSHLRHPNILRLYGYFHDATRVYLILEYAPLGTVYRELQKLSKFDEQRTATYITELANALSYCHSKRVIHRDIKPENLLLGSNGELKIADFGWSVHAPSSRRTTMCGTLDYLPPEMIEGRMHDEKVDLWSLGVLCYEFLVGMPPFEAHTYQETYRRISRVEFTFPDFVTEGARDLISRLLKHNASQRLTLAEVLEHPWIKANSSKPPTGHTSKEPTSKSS
row,SMILES,pIC50
1,"NC1CCN(C(=O)c2cc(Nc3ncc4c(n3)-c3ccc(Cl)cc3C(c3c(F)cccc3F)=NC4)ccc2Cl)CC1 [Compound I-292, N-{3-[(4-aminopiperidin-1-yl)carbonyl]-4-chlorophenyl}-9-chloro-7-(2,6-difluorophenyl)-5H-pyrimido[5,4-d][2]benzazepin-2-amine]",≥ 7.00
2,"O=C(c1ccc(Nc2ncc3c(n2)-c2ccc(Cl)cc2C(c2ccccc2F)=NC3)cc1)N(CCO)CCO [Compound I-27, 4-[9-Chloro-7-(2-fluoro-phenyl)-5H-benzo[c]pyrimido[4,5-e]azepin-2-ylamino]-N,N-bis-(2-hydroxy-ethyl)-benzamide]",≥ 7.00
3,"COc1cccc(F)c1C1=NCc2cnc(Nc3ccc(C(=O)N(C)CCN(C)C)cc3)nc2-c2ccc(Cl)cc21 [Compound I-255, 4-{[9-chloro-7-(2-fluoro-6-methoxyphenyl)-5H-pyrimido[5,4-d][2]benzazepin-2-yl]amino}-N-[2-(dimethylamino)ethyl]-N-methylbenzamide]",≥ 7.00
4,"CN(CCN)C(=O)c1ccc(Nc2ncc3c(n2)-c2ccc(Cl)cc2C(c2ccccc2F)=NC3)cc1 [Compound I-2, N-(2-Amino-ethyl)-4-[9-chloro-7-(2-fluoro-phenyl)-5H-benzo[c]pyrimido[4,5-e]azepin-2-ylamino]-N-methyl-benzamide]",≥ 7.00
5,"CNC1CCN(C(=O)c2ccc(Nc3ncc4c(n3)-c3ccc(Cl)cc3C(c3c(F)cccc3OC)=NC4)cc2)C1 (centres unmarked) [Compound I-199, {4-[9-Chloro-7-(2-fluoro-6-methoxy-phenyl)-5H-benzo[c]pyrimido[4,5-e]azepin-2-ylamino]-phenyl}-(3-methylamino-pyrrolidin-1-yl)-methanone]",≥ 7.00
6,"COc1cccc(F)c1C1=NCc2cnc(Nc3cccc(C(=O)N4CCC(N(C)C)C4)c3)nc2-c2ccc(Cl)cc21 (centres unmarked) [Compound I-231, 9-chloro-N-(3-{[3-(dimethylamino)pyrrolidin-1-yl]carbonyl}phenyl)-7-(2-fluoro-6-methoxyphenyl)-5H-pyrimido[5,4-d][2]benzazepin-2-amine]",≥ 7.00
7,"COc1cccc(F)c1C1=NCc2cnc(Nc3ccc(C(=O)N(C)CCCN)cc3)nc2-c2ccc(Cl)cc21 [Compound I-264, N-(3-aminopropyl)-4-{[9-chloro-7-(2-fluoro-6-methoxyphenyl)-5H-pyrimido[5,4-d][2]benzazepin-2-yl]amino}-N-methylbenzamide]",≥ 7.00
8,"NC1CCN(C(=O)c2ccc(Nc3ncc4c(n3)-c3ccc(Cl)cc3C(c3ccccc3C(F)(F)F)=NC4)cc2)C1 (centres unmarked) [Compound I-289, N-{4-[(3-aminopyrrolidin-1-yl)carbonyl]phenyl}-9-chloro-7-[2-(trifluoromethyl)phenyl]-5H-pyrimido[5,4-d][2]benzazepin-2-amine]",≥ 7.00
9,"C[C@H]1CN(C(=O)c2ccc(Nc3ncc4c(n3)-c3ccc(Cl)cc3C(c3c(F)cccc3F)=NC4)cc2)CCN1 [Compound I-191, {4-[9-Chloro-7-(2,6-difluoro-phenyl)-5H-benzo[c]pyrimido[4,5-e]azepin-2-ylamino]-phenyl}-(3(S)-methyl-piperazin-1-yl)-methanone]",≥ 7.00
10,"CC1CN(C(=O)c2ccc(Nc3ncc4c(n3)-c3ccc(Cl)cc3C(c3c(F)cccc3F)=NC4)cc2Cl)CCN1 (centres unmarked) [Compound I-216, 9-chloro-N-{3-chloro-4-[(3-methylpiperazin-1-yl)carbonyl]phenyl}-7-(2,6-difluorophenyl)-5H-pyrimido[5,4-d][2]benzazepin-2-amine]",≥ 7.00
11,"O=C(O)C1CNCCN1C(=O)c1ccc(Nc2ncc3c(n2)-c2ccc(Cl)cc2C(c2c(F)cccc2F)=NC3)cc1 (centres unmarked) [Compound I-219, 1-(4-{[9-chloro-7-(2,6-difluorophenyl)-5H-pyrimido[5,4-d][2]benzazepin-2-yl]amino}benzoyl)piperazine-2-carboxylic acid]",≥ 7.00
